Here are results for seven compounds from patent publication US20240391931A1 (Bristol-Myers Squibb Company, priority 2021, published 2024).

The target of experiment [1] is EGFR (Homo sapiens, UniProt P00533). The experiment in a line: EGFR signaling (pEGFR Tyr1068/total EGFR MSD) in A431 cells. It is filed as cell-based. The arrangement: endogenous in cells; host or cells: A431, N87. The following applies: for EC50: A431 cells, read-out: A431 pEGFR EC50; for Selectivity A431 EC50/BT474 EC50: ratio A431 pEGFR EC50 to BT474 pHER2 EC50; for Selectivity A431 EC50/HEKYVMA EC50: ratio A431 pEGFR EC50 to HEK YVMA pHER2 EC50. The gist of the method: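 EC50 was fitted with variable Hill slope from MSD pTyr1068/total EGFR ratios, expressed as % DMSO control. A431 cells were starved overnight, then exposed 1.5 h to eight concentrations from 10 to 0.005 μM in 1% FBS before a 10-min 100 ng/mL EGF pulse.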

In experiment [2] the target is HER2YVMA (Homo sapiens, UniProt P04626, INS775YVMA). Put plainly: HER2 signaling (pHER2) in Hek293-HER2YVMA cells. It is filed as cell-based. Details: expressed in transfected cells; host or cells: HEK293 (pool), Ba/F3 (clones), BEAS2B (clones); lentiviral vector pCDH-CMV-MCS-EF1-Neo. The following applies: 1.5 hr compound, 1% FBS, read-out: HEKYVMA pHER2 EC50. The method, boiled down:
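Lentivirally transduced HER2YVMA lines (HEK293 pool; BEAS2B clone) treated 1.5 h at 37 °C in 1% FBS medium with compound at 0.0005–1.1 μM. Lysates read by MSD immunoassay for pHER2 (Tyr1248) normalized to total HER2, as % DMSO control; EC50 from variable-slope sigmoidal fit.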

Sequence of HER2YVMA (P04626 with tags, fused parts or gaps INS775YVMA): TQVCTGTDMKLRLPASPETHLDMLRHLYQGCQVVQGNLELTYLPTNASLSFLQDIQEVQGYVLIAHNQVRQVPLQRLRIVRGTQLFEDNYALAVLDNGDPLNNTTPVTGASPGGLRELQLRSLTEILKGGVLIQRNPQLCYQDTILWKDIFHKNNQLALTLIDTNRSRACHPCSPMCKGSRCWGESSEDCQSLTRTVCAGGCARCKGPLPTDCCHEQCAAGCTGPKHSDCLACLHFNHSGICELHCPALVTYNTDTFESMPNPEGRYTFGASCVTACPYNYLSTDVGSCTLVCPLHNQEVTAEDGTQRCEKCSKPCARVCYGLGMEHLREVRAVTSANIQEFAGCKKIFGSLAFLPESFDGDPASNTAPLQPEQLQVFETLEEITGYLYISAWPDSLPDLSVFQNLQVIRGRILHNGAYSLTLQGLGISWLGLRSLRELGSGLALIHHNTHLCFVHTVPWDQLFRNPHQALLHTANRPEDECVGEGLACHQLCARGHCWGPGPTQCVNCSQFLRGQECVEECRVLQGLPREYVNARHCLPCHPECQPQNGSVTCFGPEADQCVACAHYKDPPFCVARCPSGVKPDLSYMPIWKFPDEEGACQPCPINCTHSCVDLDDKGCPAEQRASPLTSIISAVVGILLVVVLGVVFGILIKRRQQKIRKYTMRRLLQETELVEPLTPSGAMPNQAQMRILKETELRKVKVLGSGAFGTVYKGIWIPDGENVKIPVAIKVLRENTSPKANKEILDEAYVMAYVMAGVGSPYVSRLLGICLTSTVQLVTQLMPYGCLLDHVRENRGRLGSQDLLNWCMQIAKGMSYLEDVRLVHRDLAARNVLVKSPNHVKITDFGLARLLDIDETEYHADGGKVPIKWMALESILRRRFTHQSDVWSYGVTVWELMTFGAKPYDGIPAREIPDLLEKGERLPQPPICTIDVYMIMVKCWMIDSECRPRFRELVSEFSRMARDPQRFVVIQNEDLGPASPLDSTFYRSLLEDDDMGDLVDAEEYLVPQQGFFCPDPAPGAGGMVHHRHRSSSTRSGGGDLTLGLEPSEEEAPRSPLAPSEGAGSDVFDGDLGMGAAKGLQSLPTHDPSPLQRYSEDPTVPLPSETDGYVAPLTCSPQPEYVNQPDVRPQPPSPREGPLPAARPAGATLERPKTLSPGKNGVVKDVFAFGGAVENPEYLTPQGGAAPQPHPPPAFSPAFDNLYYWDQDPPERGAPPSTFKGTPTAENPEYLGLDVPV
Sequence of EGFR (P00533 25-1210): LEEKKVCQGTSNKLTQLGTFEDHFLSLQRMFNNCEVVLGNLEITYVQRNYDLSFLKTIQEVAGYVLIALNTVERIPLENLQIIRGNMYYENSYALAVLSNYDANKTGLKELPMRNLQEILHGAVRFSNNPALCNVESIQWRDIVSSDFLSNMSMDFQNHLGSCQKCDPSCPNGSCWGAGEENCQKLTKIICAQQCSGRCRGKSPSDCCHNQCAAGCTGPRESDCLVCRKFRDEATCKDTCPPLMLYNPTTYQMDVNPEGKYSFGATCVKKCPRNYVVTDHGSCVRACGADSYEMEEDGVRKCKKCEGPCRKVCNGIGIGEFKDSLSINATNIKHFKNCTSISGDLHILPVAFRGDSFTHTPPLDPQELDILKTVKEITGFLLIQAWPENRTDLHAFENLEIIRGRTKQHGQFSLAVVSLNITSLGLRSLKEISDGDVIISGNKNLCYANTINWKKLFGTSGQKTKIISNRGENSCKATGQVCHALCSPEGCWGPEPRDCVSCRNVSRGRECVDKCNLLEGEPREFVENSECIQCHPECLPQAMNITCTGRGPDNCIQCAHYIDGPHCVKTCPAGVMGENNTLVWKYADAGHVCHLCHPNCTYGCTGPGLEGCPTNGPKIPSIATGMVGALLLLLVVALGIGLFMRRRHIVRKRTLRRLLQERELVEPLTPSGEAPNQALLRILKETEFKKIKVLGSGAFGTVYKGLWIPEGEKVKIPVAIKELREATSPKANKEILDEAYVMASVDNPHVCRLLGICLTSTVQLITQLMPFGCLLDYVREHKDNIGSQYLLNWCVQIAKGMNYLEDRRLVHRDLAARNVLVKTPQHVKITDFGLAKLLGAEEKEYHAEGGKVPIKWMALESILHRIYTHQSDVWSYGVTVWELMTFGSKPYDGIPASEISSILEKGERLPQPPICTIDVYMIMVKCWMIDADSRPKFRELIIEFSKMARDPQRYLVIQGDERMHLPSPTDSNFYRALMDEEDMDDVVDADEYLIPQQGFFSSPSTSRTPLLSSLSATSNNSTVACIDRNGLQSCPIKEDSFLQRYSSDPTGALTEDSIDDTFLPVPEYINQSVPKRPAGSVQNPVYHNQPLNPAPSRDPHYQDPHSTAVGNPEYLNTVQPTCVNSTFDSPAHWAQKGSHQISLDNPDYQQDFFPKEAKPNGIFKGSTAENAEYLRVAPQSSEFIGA

Consider `Cc1cc(Nc2ncnc3sc4c(c23)CCN(C(=O)/C=C/CN(C)C)CC4)ccc1Oc1ccn2ccnc2c1` [Compound 172, (E)-4-(Dimethylamino)-1-(4-((4-(imidazo[1,2-a]pyridin-7-yloxy)-3-methylphenyl)amino)-8,9-dihydro-5H-pyrimido[5′,4′:4,5]thieno[2,3-d]azepin-7(6H)-yl)but-2-en-1-one], for which, in experiment [1], the EC50 (commonly the midpoint of the concentration-response curve) was in the range of 1000 to 10000 nM; the “Selectivity A431 EC50/BT474 EC50” value was “B (B: ≥ 20 and < 100)”; the “Selectivity A431 EC50/HEKYVMA EC50” value was “C (C: ≥ 10 and < 20)”. For the same compound, the EC50 in experiment [2] was 100 to 350 nM.
As to `Cc1ccc(Oc2ccc(Nc3ncnc4sc5c(c34)C(C)CN(C(=O)/C=C/CN3CCOCC3)C5)cc2C)cn1` (stereo not shown) [Compound 174, (E)-1-(5-Methyl-4-((3-methyl-4-((6-methylpyridin-3-yl)oxy)phenyl)amino)-5,6-dihydropyrido[4′,3′:4,5]thieno[2,3-d]pyrimidin-7(8H)-yl)-4-morpholinobut-2-en-1-one], in experiment [1], the EC50 was in the range of 100 to 1000 nM; the “Selectivity A431 EC50/BT474 EC50” value was “B (B: ≥ 20 and < 100)”; the “Selectivity A431 EC50/HEKYVMA EC50” value was “C (C: ≥ 10 and < 20)”. Moreover, in experiment [2], the EC50 was less than 100 nM.
On to `C=CC(=O)N1CCc2c(sc3ncnc(Nc4ccc(Oc5cccnc5)c(C)c4)c23)C1` [Compound 11, 1-(4-((3-methyl-4-(pyridin-3-yloxy)phenyl)amino)-5,8-dihydropyrido[4′,3′:4,5]thieno[2,3-d]pyrimidin-7(6H)-yl)prop-2-en-1-one], for which, in experiment [1], the EC50 was less than 100 nM; the “Selectivity A431 EC50/BT474 EC50” value is “E (E: >1 and < 5)”; the “Selectivity A431 EC50/HEKYVMA EC50” value was “E (E: >1 and < 5)”. Also, in experiment [2], the EC50 was less than 100 nM.
For the compound `Cc1cc(Nc2ncnc3sc4c(c23)CCN(C(=O)/C=C/CN(C)C)C4)ccc1Oc1ccn2ccnc2c1` [Compound 126, (E)-4-(dimethylamino)-1-(4-((4-(imidazo[1,2-a]pyridin-7-yloxy)-3-methylphenyl)amino)-5,8-dihydropyrido[4′,3′:4,5]thieno[2,3-d]pyrimidin-7(6H)-yl)but-2-en-1-one], in experiment [1], the EC50 lay within 100 to 1000 nM; the “Selectivity A431 EC50/BT474 EC50” value was “B (B: ≥ 20 and < 100)”; the “Selectivity A431 EC50/HEKYVMA EC50” value is “B (B: ≥ 20 and < 100)”. Further, in experiment [2], the EC50 was less than 100 nM.
For the compound `Cc1cc(Nc2ncnc3sc4c(c23)CN(C(=O)/C=C/CN(C)C)C4)ccc1Oc1ccn2ncnc2c1` [Compound 130, (E)-1-(4-((4-([1,2,4]Triazolo[1,5-a]pyridin-7-yloxy)-3-methylphenyl)amino)-5H-pyrrolo[3′,4′:4,5]thieno[2,3-d]pyrimidin-6(7H)-yl)-4-(dimethylamino)but-2-en-1-one], in experiment [1], the EC50 was 1000 to 10000 nM, the “Selectivity A431 EC50/BT474 EC50” value is on record as “A (A: ≥100)” and the “Selectivity A431 EC50/HEKYVMA EC50” value is “A (A: ≥100)”. In experiment [2], the EC50 was less than 100 nM.
As for `Cc1cc(Nc2ncnc3sc4c(c23)CCN(C(=O)/C=C/CN2CCOCC2)C4)ccc1Oc1ccc2ncnn2c1` [Compound 12], in experiment [1], the EC50 is 1000 to 10000 nM; the “Selectivity A431 EC50/BT474 EC50” value is reported as “A (A: ≥100)”; the “Selectivity A431 EC50/HEKYVMA EC50” value is “B (B: ≥ 20 and < 100)”. In experiment [2], the EC50 was less than 100 nM.
Take `Cc1ccc(Oc2ccc(Nc3ncnc4sc5c(c34)CCN(C(=O)/C=C/CN3CC(C)(C)OC(C)(C)C3)C5)cc2C)cn1` [Compound 121]: in experiment [1], the EC50 was in the range of 1000 to 10000 nM; the “Selectivity A431 EC50/BT474 EC50” value was “B (B: ≥ 20 and < 100)”; the “Selectivity A431 EC50/HEKYVMA EC50” value was “C (C: ≥ 10 and < 20)”. Further, in experiment [2], the EC50 was less than 100 nM.
